{"source": "patent US11801246B2", "about": "“Methods of treating ischemic disease by administering an ATR kinase inhibitor” (East Tennessee State University Research Foundation, priority 2018, dated 2023)", "key": {"[1]": {"tested_on": "dividing ATR+/+ and ATRflox/- HCT116 cells", "test": "morphologic analysis (phase-contrast microscopy) of form of cell death", "assay_type": "cell-based, human", "text": "(§1) FIG. 4 reports data supporting the finding that necrosis is the form of cell death induced by Ca^2+ overload in dividing cells. (A) ATR^+/+ and ATR^flox/− cells were pre-treated with apoptosis inhibitor Z-VAD-FMK and then with ionomycin for cytotoxicity assay. […] As a control, camptothecin (CPT), a DNA double-strand break and typical apoptosis inducer, caused characteristic cell shrinkage and apoptotic bodies. […] (E) A549 cells were transfected with control, ATR, or ATM siRNAs for 72 hrs, then treated with ionomycin for 4 hrs. Treated cells were either analyzed by Western blot or trypan blue staining for determination of cell death. (*, p≤0.01).\n(§2) Cultured dividing ATR^+/+ and ATR^flox/− HCT116 cells were pre-treated with apoptosis inhibitor Z-VAD-FMK and then with ionomycin, followed by trypan blue cytotoxicity assay (FIG. 4A). […] As a control, CPT, a DNA double-strand break and typical apoptosis inducer, caused characteristic cell shrinkage and apoptotic bodies. […] FIG. 4E: Dividing A549 cells were transfected with control, ATR, or ATM siRNAs for 72 hrs, then treated with ionomycin for 4 hrs. Treated cells were either analyzed by Western blot or subjected to trypan blue staining for determination of cell death. (*, p≤0.01)."}, "[2]": {"tested_on": "caspases", "test": "Western blot of activated (cleaved) caspases", "assay_type": "cell-based, human", "text": "as §1, §2"}, "[3]": {"tested_on": "Terminally differentiated non-dividing SH-SY5Y cells", "test": "cytotoxicity assay, Ca2+ overload in non-dividing cells", "assay_type": "cell-based, human", "details": "glutamate 100 uM, QA 1.0 mM, ionomycin 1.0 uM ± VE-822", "protocol": "(§3) (A) Dividing human neural SH-SY5Y cells cultured in Dulbecco's modified Eagle's medium (DMEM) supplemented with 10% fetal bovine serum were treated with glutamate (100 uM), quinolinic acid (QA, 1.0 mM) or ionomycin (10 uM) in the presence and absence of ATR inhibitor VE-822 (ATRi, 80 nM) for 2 hours before cell death was measured using LDH cytotoxicity assay (LDH toxicity kit, Promega) following the vendor's procedures. (B)-(C) human ATR^+/+ and ATR^flox/− HCT116 cells and primary fibroblasts transfected with ATR siRNAs for 48 hrs were treated with ionomycin (10 uM) for the indicated periods before cell death was measured using standard trypan blue cytotoxicity assay. […] (E) Terminally differentiated non-dividing SH-SY5Y cells were treated with glutamate (100 uM), QA (1.0 mM) and ionomycin (1.0 uM)±VE-822 before cell death was measured using cytotoxicity assay. […] (G) Live cells (rounded morphology-white arrowheads) were counted in 5 fields per well. […]\n(§4) Dividing human neural SH-SY5Y cells were treated with glutamate (100 uM), quinolinic acid (QA) (1.0 mM) or ionomycin (10 uM)±ATR inhibitor VE-822 (ATRi) for 2 hrs before cell death was measured using LDH cytotoxicity assay. Human ATR^+/+ and ATR^flox/− HCT116 cells and primary fibroblasts±ATR siRNAs were treated with ionomycin (10 uM) for the indicated periods before cell death was measured using trypan blue cytotoxicity assay. […]"}, "[4]": {"tested_on": "Primary cortical neurons", "test": "NMDA excitotoxicity, live cell count", "assay_type": "cell-based, mouse", "details": "1 h pretreatment, then 10 uM NMDA for 8 h; p≤0.01"}, "[5]": {"tested_on": "myoblastic cells H9C2", "test": "hypoxia/reperfusion assay", "assay_type": "cell-based, human", "details": "dividing myoblastic H9C2 cells ± VE-822; hypoxia/reperfusion incubator"}, "[6]": {"tested_on": "Dividing human neural SH-SY5Y cells", "test": "LDH cytotoxicity assay, Ca2+ overload in dividing cells", "assay_type": "cell-based", "details": "glutamate 100 uM, QA 1.0 mM or ionomycin 10 uM, VE-822 80 nM, 2 hrs", "protocol": "as §3, §4"}, "[7]": {"tested_on": "C57BL/6 mice", "test": "middle cerebral artery occlusion (MCAO) stroke model", "assay_type": "in vivo, mouse", "protocol": "Adult mice injected i.p. with vehicle (A) over 3 d after a 30 min unilateral MCAO had larger infarcts (identified by GFAP+ astrocyte borders and more leukocyte (CD45) infiltration) in the brain at 7 d, than with ATR inhibitor (ATRi) VE-822 (B). (C) Quantification of infarct size as % of the contralateral side. Data are mean+SEM. N=4, 6, *p<0.05. […] (E) The number of neurons identified by the area of NeuN staining in the infarct was increased by VE-822 treatment. (F) With vehicle the striatum was essentially devoid of neurons. (G) In VE-822 treated mice rescued neurons often appeared around blood vessels (identified by αSMA). (H) Grid walk analysis of VE-822-treated and mock-treated MCAO mice.\n(A) VE-822-treated mice had fewer CD45+ infiltrating leukocytes in the infarct at 7 d after MCAO, as shown by area measurements. N=4, 6, **p<0.01. (B) Only in ATR inhibitor-treated mice, a sub-set of CD45+ cells were double-labeled with TUNEL (white arrows), which identifies DNA breaks in dying cells. (C) These cells included CD68+ microglia/macrophages as shown by split cells in an adjacent section (yellow arrows). Note the perivascular CD68+ cell at the wall of a blood vessel (BV, pink arrow). (D) Cleaved caspase-3 was present in CD45+ and CD68+ cells ([…] confocal slice). (E) The number of TUNEL+ nuclei in the cortex and striatum was higher with the ATR inhibitor treatment. (F) Some of the CD45 cells expressed ATR. (G) After MCAO, ATR expression was induced in PDGFRβ+ pericytes in the infarct. Yellow arrows indicate the cells shown by confocal on the right. Bottom confocal: ATR is seen in a CD13+ pericyte around a microvessel. […] Green arrows=healthy pericytes.\nAdult male C57BL/6 mice (10-12 weeks old; JAX Stock 000664, Jackson Labs) were anesthetized with Avertin and received a unilateral middle cerebral artery occlusion (MCAO) for 30 min as described (Kang et al., Endogenous CNTF mediates stroke-induced adult CNS neurogenesis in mice, Neurobiology of Disease 49: 68-78 (2013)). Reduced cortical blood flow was confirmed by Laser-Doppler Flowmetry and body temperature maintained during and after the MCAO. Two hours afterwards, ATR inhibitor VE-822 was injected i.p., and again at 24 and 48 h. One day before and at 3 and 7 days after MCAO, the mice were tested for impaired forepaw use in a glass cylinder test while rearing and the number of placement errors during grid walking. At 7 d mice were processed for histology of the brain as described (Kang et al., 2012, and Kang, et al., 2013), using various antibodies for cellular markers. Infarct size was determined by the area of lost cells in GFAP- and NeuN (neurons)-stained sections. Inflammatory cells were detected and identified with various antibodies and their death documented using an apoptosis detection kit and by nuclear staining."}, "[8]": {"tested_on": "Terminally differentiated non-dividing SH-SY5Y cells", "test": "MTT cytotoxicity (cell viability) assay", "assay_type": "cell-based, human", "details": "Z-VAD-FMK combined with VE-822; glutamate", "protocol": "FIG. 3 depicts results of a cell viability assay (MTT) showing apoptosis is induced by Ca^2+ overload in terminally differentiated non-dividing SH-SY5Y cells but is reduced by ATR inhibition.\nStandard MTT cytotoxicity assay was carried out on terminally differentiated non-dividing SH-SY5Y cells treated with combinations of VE-822, Z-VAD-FMK, and glutamate. Cell differentiation: SH-SY5Y were grown to 60-70% confluency. Complete media was then replaced with 1% serum DMEM supplemented with freshly made all-trans retinoic acid dissolved in DMSO to a final in dish concentration of […]. This media was changed every two days following the same composition until day ten. At day ten the media was replaced with 1% serum DMEM with no further supplementation. A washout period of two days was allowed before any experiments were performed."}, "[9]": {"tested_on": "dividing ATR+/+ and ATRflox/- HCT116 cells", "test": "trypan blue cytotoxicity assay with apoptosis inhibitor pretreatment", "assay_type": "cell-based, human", "details": "pretreatment with Z-VAD-FMK, then ionomycin", "text": "as §1, §2"}, "[10]": {"tested_on": "dividing SH-SY5Y cells", "test": "DNA damage signaling and AIF activation", "assay_type": "cell-based, human", "details": "up to 8 hr, compared to controls; data not shown", "text": "A cell morphology-based assay was used to compare cells treated with ionomycin vs. the apoptosis-inducer camptothecin (CPT) (FIG. 4B, C). […] Importantly, cell death depended on NAD+ depletion and was calpain-independent; and ionomycin or glutamate induced little/no DNA damage signaling and AIF activation in dividing SH-SY5Y cells as compared to controls for up to 8 hr, although DNA damage did occur at 24 hr (data not shown)."}, "[11]": {"tested_on": "ATR binding to PARP1", "test": "ATR co-immunoprecipitation and Western blot for PARP1 binding", "assay_type": "cell-based, human", "details": "dividing A549 cells; ionomycin-treated vs control", "protocol": "(B) Dividing ATR^+/+ and ATR^flox/− cells were treated with ionomycin for the indicated periods. (C) Dividing A549 cells were treated with ionomycin, followed by subcellular fractionation and co-immunoprecipitation with ATR antibody and Western blot analysis for PARP1 binding.\nSince PARP hyperactivation is known to be the major cause of necrosis by Ca^2+ overload, the effects of ATR on PARsylation in dividing cells was investigated. […] ATR+/+ and ATRflox/− cells were treated with ionomycin for the indicated periods. A549 cells were treated with ionomycin, followed by fractionation and ATR co-IP and Western blot analysis for PARP1 binding."}, "[12]": {"tested_on": "HCT116 and A549 cells and primary fibroblasts", "test": "flow cytometric analysis of necrotic and apoptotic cells", "assay_type": "cell-based, human", "details": "data not shown"}, "[13]": {"tested_on": "PARP", "test": "Western blot analysis of poly(ADP-ribose) (PAR) formation", "assay_type": "cell-based, human", "details": "dividing A549 cells; ionomycin 10 uM"}}, "note": "“Also recorded” adds a separate entry of the source. Peptide text beside a SMILES is read from it. * marks the point of attachment. Cbz = O=C(OCc1ccccc1)*; CH2F = FC*", "data": [{"smiles": "CC[C@@]1(O)C(=O)OCc2c1cc1n(c2=O)Cc2cc3ccccc3nc2-1", "note": "[CPT, camptothecin]", "values": [{"measurement": "form of cell death by cell morphology", "setting": "[1]", "result": "efficiently induced apoptosis"}, {"measurement": "caspase activation (Western blot)", "setting": "[2]", "result": "obvious"}]}, {"smiles": "CNCc1ccc(-c2cc(-c3nc(-c4ccc(S(=O)(=O)C(C)C)cc4)cnc3N)on2)cc1", "note": "[VE-822, 5-(4-(Isopropylsulfonyl)phenyl)-3-(3-(4-((methylamino)methyl)phenyl)isoxazol-5-yl)pyrazine-2-amine]", "values": [{"measurement": "cell death (rescue)", "setting": "[3]", "result": "rescued"}, {"measurement": "live cells after NMDA excitotoxicity", "setting": "[4]", "result": "rescued from NMDA excitotoxicity"}, {"measurement": "cell death", "setting": "[5]", "result": "Increased death"}, {"measurement": "cell death caused by cellular Ca2+ overload inducers", "setting": "[6]", "result": "dramatically increased cell death"}, {"measurement": "pericyte morphology in the infarct", "setting": "[7]; 7 d after MCAO, VTN-identified pericytes", "result": "morphology consistent with necrosis"}, {"measurement": "number of TUNEL-positive cells in the injury site", "setting": "[7]; 7 d after MCAO, cortex and striatum, vs vehicle", "result": "increased"}, {"measurement": "number of neurons in the injury site (NeuN area)", "setting": "[7]; 7 d after MCAO, vs vehicle", "result": "increased; also recorded: greater"}, {"measurement": "CD45-positive leukocytes in the injury site", "setting": "[7]; 7 d after MCAO, vs vehicle, p<0.01", "result": "fewer"}, {"measurement": "infarct size", "setting": "[7]; 7 days after 30 min MCAO, i.p. at 2, 24 and 48 h, vs vehicle, p<0.05", "result": "smaller infarcts"}, {"measurement": "neurological function, grid-walking", "setting": "[7]; MCAO mice, i.p. at 2, 24 and 48 h, vs mock-treated", "result": "improved neurological function"}, {"measurement": "neurological function, affected paw use in cylinder test", "setting": "[7]; MCAO mice, i.p. at 2, 24 and 48 h, vs vehicle", "result": "improved neurological function"}, {"measurement": "neurological function, affected paw use in cylinder test", "setting": "[7]; MCAO mice, i.p. at 2, 24 and 48 h, vs vehicle, listed as ATRi", "result": "increased to the near normal forelimb use index level"}]}, {"smiles": "COC(=O)C[C@H](NC(=O)[C@H](C)NC(=O)[C@@H](NC(=O)OCc1ccccc1)C(C)C)C(=O)CF", "note": "[Z-VAD-FMK] (Cbz-Val-Ala-Asp(OMe)-CH2F)", "values": [{"measurement": "rescue from death (MTT), combination of apoptosis inhibitor and ATR inhibition", "setting": "[8]", "result": "do not have additive effects"}, {"measurement": "cell death (trypan blue)", "setting": "[9]", "result": "had no effect on cell death"}]}, {"smiles": "N[C@@H](CCC(=O)O)C(=O)O", "note": "[glutamate]", "values": [{"measurement": "DNA damage signaling and AIF activation", "setting": "[10]", "result": "little/no"}]}, {"smiles": "C[C@H](CCC(=O)O)C[C@H](C)C[C@H](C)C(=O)/C=C(\\O)[C@H](C)C[C@H](C)C/C=C/[C@@H](C)[C@@H](O)[C@@H](C)[C@@H](O)C[C@@H]1CC[C@@](C)([C@H]2CC[C@@](C)([C@@H](C)O)O2)O1", "note": "[ionomycin]", "values": [{"measurement": "ATR interaction with PARP1 (co-IP)", "setting": "[11]", "result": "interacts with PARP1"}, {"measurement": "form of cell death by cell morphology", "setting": "[1]", "result": "caused necrosis"}, {"measurement": "form of cell death by flow cytometry", "setting": "[12]", "result": "necrotic cell death"}, {"measurement": "DNA damage signaling and AIF activation", "setting": "[10]", "result": "little/no"}, {"measurement": "PARP activity as formation of PAR polymers", "setting": "[13]", "result": "increased PARP activity"}, {"measurement": "caspase activation (Western blot)", "setting": "[2]", "result": "absence of caspase activation"}]}]}
